Series [1] has as its system human whole blood (HWB). In words: Effects of EP agonists on the production of IL-6 in HWB. It is filed as cell-based. Conditions: agonist 1-10 μM (up to 10 μM), 24 hrs. The method, then:
Peripheral human whole blood (HWB) was collected from healthy volunteers into the sample tubes (nine volumes into one volume of 3.8% trisodium citrate, Becton Dickinson), and chilled at 4° C. until the experiment. HWB (50 μl) was put into the assay plate and mixed for 10 sec with plate mixer (intensity level at 4, TAITAC, Micromixer). The samples were placed for 3 min at room temperature, then 45 μl of AIM medium was added and mixed for 10 sec with plate mixer (intensity level at 4). The samples were placed for 3 min at room temperature. The mixture (100 μl) of 10-10000 nM each EP agonist and 100 μM argatroban were added to the samples, and mixed for 10 sec with plate mixer (intensity level at 4). The samples were incubated in 5% CO2 at 37° C. for 24 hrs. Then, the samples were stirred and centrifuged at 200 g for 10 minutes. The supernatants were collected, and the IL-6 concentration was measured by ELISA-Kit (Cyto screen).
The application of 1-10 μM Butaprost, an EP2 agonist, enhanced IL-6 production (FIG. 5). […] Effects of EP2 (butaprost), EP4 (11-deoxy-PGE1) and EP1/EP3 (sulprostone) agonists on the production of IL-6 in HWB was measured respectively. Each agonist was added to the HWB, and incubated in 5% CO2 at 37° C. for 24 hrs. The results represented the mean±s.d. of the results in triplicate. […]

A further series relates to human PBMC. In words: PGE2 stimulation of IL-6 secretion in ConA-treated human PBMC and its inhibition by EP4 antagonists (ELISA). It counts as cell-based. Conditions: for IC50: Homo sapiens, PBMC stimulated with 5 μg/ml ConA and 100 nM PGE2 for 24 hr, read-out: IC50 of inhibition of IL-6 production. The procedure:
PBMC were stimulated with 5 μg/ml of Con A alone or with 10 nM to 1000 nM PGE2 at 37° C. for 24 hr. The secreted IL-6 in culture medium was measured by ELISA. Data are expressed as mean±s.d. (FIG. 1)
The PGE2 concentration-dependence of stimulation of IL-6 secretion by human PBMC without and with ConA-stimulation, and the inhibitory effect of Compound A. PBMC were stimulated with 5 μg/ml of Concanavalin A alone or with 10 nM to 1000 nM PGE2 at 37° C. in 5% CO2 for 24 hr. To see the effect of Compound A, 50 μM of Compound A was added simultaneously with ConA and PGE2, and incubated for 24 hr. Data in parenthesis are expressed % control of mitocondorial dehydrogenase activity. (FIG. 2)
Compound A and Compound B inhibited the IL-6 secretion in ConA-treated PBMC. (FIG. 3.) PBMC were incubated with 5 μg/ml of Con A, 100 nM PGE2 and various doses of EP4 antagonists at 37° C. for 24 hr. The secreted IL-6 in culture medium was measured by ELISA. Data are expressed as mean±s.d.
(In general: In an ELISA, binding on a coated surface is turned into a signal by an enzyme label.)

The test system of a further series is PGE2-stimulated HWB. In words: Effects of EP4 antagonist on the production of IL-6 in PGE2-stimulated HWB. Particulars: Compound B 320-40,000 nM, 24 hrs. It counts as cell-based, human. The procedure:
Peripheral human whole blood (HWB) was collected from healthy volunteers into the sampling tubes (nine volumes into one volume of 3.8% trisodium citrate, Becton Dickinson), and chilled at 4° C. until the experiment.
Compound B (5 μl) or vehicle (AIM medium containing 0.2% DMSO) was added into 96-well culture plates. HWB (50 μl) was put into the assay plate and mixed for 10 sec with plate mixer (intensity level at 4, TAITAC, Micromixer). The samples were placed for 3 min at room temperature, and then 45 μl of AIM medium was added and mixed for 10 sec with plate mixer (intensity level at 4). The samples were placed for 3 min at room temperature. The mixture (100 μl) of 100 nM PGE2 and 100 μM argatroban was added to the samples, and mixed for 10 sec with plate mixer (intensity level at 4). The samples were incubated in 5% CO2 at 37° C. for 24 hrs. Then, the samples were stirred and centrifuged at 200 g for 10 minutes. The supernatants were collected, and the IL-6 concentration was measured by ELISA-Kit (Cyto screen).
Compound B inhibited the PGE2-stimulated IL-6 production in a dose dependent manner (FIG. 6). Diluted human whole blood samples containing Compound B were stimulated with 10-10,000 nM of PGE2 and incubated at 37° C. for 24 hrs. The IL-6 concentration in the supernatant was determined by ELISA. […]

Series [2] concerns ConA and PGE2 co-stimulated human whole blood. In words: IL-6 production in ConA and PGE2 co-stimulated human whole blood. It is filed as cell-based. The procedure:
Compound B (50 μl), ConA and PGE2 (50 μl, 1:1) were diluted with the AIM medium (Gibco) in the appropriate concentrations (conc.) and were placed onto 96-well culture plates (assay plates). Peripheral blood was collected from healthy volunteers (nine volumes into one volume of 3.8% trisodium citrate, Becton Dickinson). Human whole-blood samples were diluted with the same volume of AIM medium, and 100 μl of diluted-blood samples were place onto the assay plates. The final DMSO conc. of assay mixtures was 0.25%. The assay mixtures were incubated in 5% CO2 at 37° C. for 24 hrs. Then, the assay mixtures were stirred and centrifuged at 200 g for 10 minutes. The supernatants were collected, and the IL-6 concentration was measured by ELISA-Kit (Cyto screen).
PGE2 enhanced IL-6 production dose dependently from 10 to 1000 nM (FIG. 7). When blood samples were stimulated with 10, 100 and 1000 nM of PGE2, the IL-6 concentrations in the assay mixtures were 1.8˜10.8 ng/ml, 4˜20 ng/ml and 5.8˜23 ng/ml, respectively. The concentrations of PGE2 (10-1000 nM) gave sufficient IL-6 production to determine the IC50s of the EP4 antagonists. […] Diluted human whole-blood samples were stimulated with 5 μg/ml of ConA and three different concentrations of PGE2 (10-1000 nM). The IL-6 concentration in the supernatant was determined after 24 hrs of incubation at 37° C. Diluted human whole blood was co-stimulated with 5 μg/ml of ConA and 100 nM of PGE2 and incubated at 37° C. for 24 hrs. The IL-6 concentration in the supernatant was determined by ELISA.

The next series relates to human whole blood cells. In words: IL-6 production in human whole blood cells. It counts as cell-based. Conditions: application of only PGE2 to human whole blood cells. From the text: One embodiment of this invention is a more specific therapeutic targeting system to control IL-6 production. In addition, this system is a useful method for the detection of molecular target of atherosclerosis and IL-6 related disorders.

For series [3], the system named is human leukemic T cells of the HSB.2 cultured line. Particulars: HSB.2 cells coexpressing EP2, EP3 and EP4; cited from earlier work.
The subject of another series is fibrin formation. In words: Fibrin formation in HWB culture samples during 24 hrs incubation. Set-up: species or system human. Particulars: 100 μM.
The subject of series [4] is human whole blood (HWB). In words: PGE2-induced IL-6 production assay using human whole blood (HWB). It counts as cell-based. Conditions: 100 μM, 24 hrs incubation.
Protocol: Peripheral human whole blood (HWB) was collected from healthy volunteers into the sample tubes (nine volumes into one volume of 3.8% trisodium citrate, Becton Dickinson), and chilled at 4° C. until the experiment. HWB (50 μl) was put into the assay plate and mixed for 10 sec with plate mixer (intensity level at 4, TAITAC, Micromixer). The samples were placed for 3 min at room temperature, then 45 μl of AIM medium was added and mixed for 10 sec with plate mixer (intensity level at 4). The samples were placed for 3 min at room temperature. The mixture (100 μl) of 10-10000 nM PGE2 and 100 μM argatroban were added to the samples, and mixed for 10 seconds with plate mixer (intensity level at 4). The samples were incubated in 5% CO2 at 37° C. for 24 hrs. Then, the samples were stirred and centrifuged at 200 g for 10 minutes. The supernatants were collected, and the IL-6 concentration was measured by ELISA-Kit (Cyto screen).
In this experiment, we have established PGE2-induced IL-6 production assay using human whole blood (HWB). To prevent fibrin synthesis, argatroban, a thrombin inhibitor, was added to the culture samples. […] Diluted human whole blood samples were stimulated with 10-10,000 nM of PGE2 and incubated at 37° C. for 24 hrs. The IL-6 concentration in the supernatant was determined by ELISA. […]

The values that follow come from patent US7928119B2, “Use of EP4 receptor ligands in the treatment of IL-6 involved diseases” (Pfizer Inc., priority 2002, dated 2011).

Where “and” joins values, the source holds several entries; their conditions need not be identical. Equal entries are not always repeated.

A word on the IC50: it is the concentration that inhibits the measured activity by half. The term melting point denotes the temperature, or range, at which the solid turns liquid.

Protocol for fibrin formation: In this experiment, we have established PGE2-induced IL-6 production assay using human whole blood (HWB). To prevent fibrin synthesis, argatroban, a thrombin inhibitor, was added to the culture samples. […] Diluted human whole blood samples were stimulated with 10-10,000 nM of PGE2 and incubated at 37° C. for 24 hrs. The IL-6 concentration in the supernatant was determined by ELISA. The results represented the mean±s.d. from one representative experiment performed in triplicate.

For `CCCCC[C@H](O)/C=C/[C@H]1CCC(=O)[C@@H]1CCCCCCC(=O)O` [11-deoxy-PGE1], in the series on human whole blood (HWB) [1], the IL-6 production entry is reported as “enhanced”.

With `CCCC1([C@H](O)C/C=C/[C@H]2[C@H](O)CC(=O)[C@@H]2CCCCCCC(=O)OC)CCC1` [Butaprost], the IL-6 production result with human whole blood (HWB) [1] was “enhanced”.

With `CCc1nc2c(C)cc(C)nc2n1-c1ccc(CCNC(=O)NS(=O)(=O)c2ccc(C)cc2)cc1` [Compound A, N-[({2-[4-(2-ethyl-5,7-dimethyl-3H-imidazo[4,5-b]pyridin-3-yl)phenyl]ethyl}amino)carbonyl]-4-methylbenzenesulfonamide], in the series on human PBMC (ConA-treated PBMC, 50 μM compound, PGE2 10-1000 nM, 24 hr), the “IL-6 production enhanced by PGE2” value was “significantly inhibited”. Further, the IC50 with human PBMC stood at 13 nM.

For `O=C(O)c1cccc(C[C@@H]2CCCC=C2c2nc(-c3ccccc3)c(-c3ccccc3)o2)c1` [Compound B, 3-{[(1S)-2-(4,5-diphenyl-1,3-oxazol-2-yl)-2-cyclohexen-1-yl]methyl}benzoic acid], the “PGE2-stimulated IL-6 production” value in the series on PGE2-stimulated HWB was “inhibited”. Moreover, in the series with human PBMC, the IC50 came to 32 nM.

On to `CCc1nc2cc(C(C)=O)ccc2n1-c1ccc(CCNC(=O)NS(=O)(=O)c2ccc(C)cc2)cc1` [Compound C, N-[({2-[4-(5-acetyl-2-ethyl-1H-benzimidazol-1-yl)phenyl]ethyl}amino)carbonyl]-4-methylbenzenesulfonamide], for which, in series [2] (ConA and PGE2 co-stimulated HWB), the “mode of inhibition of IL-6 production” value is “competitively with PGE2”. Also, the “inhibition of IL-6 production” value in series [2] (ConA and PGE2 co-stimulated HWB, Compound C 16-50,000 nM) is reported as “dose-dependent inhibition”.

Compound `CC(=O)c1nc2cc(C(F)(F)F)c(Cl)cc2n1-c1ccc(CCNC(=O)NS(=O)(=O)c2ccc(C)cc2)cc1` [Example 368, N-{[(2-{4-[2-ACETYL-6-CHLORO-5-(TRIFLUOROMETHYL)-1H-BENZIMIDAZOL-1-YL]PHENYL}ETHYL)AMINO]CARBONYL}-4-METHYLBENZENESULFONAMIDE] had a melting point of 225 °C.

In the case of `CCCCC[C@H](O)/C=C/[C@H]1[C@H](O)CC(=O)[C@@H]1C/C=C\CCCC(=O)O` [PGE2, Prostaglandin E2], the IL-6 production result is “enhanced IL-6 production to a great extent” with human whole blood cells; “enhanced” in series [2] (ConA-stimulated HWB, PGE2 10 to 1000 nM); “enhanced” in series [3]. Besides, in the series with human PBMC (ConA unstimulated PBMC, 10-1000 nM PGE2), the “secretion of IL-6” value is on record as “did not affect”. Besides, in the series on human PBMC (PBMC, 5 μg/ml ConA, 24 hr, […] PGE2 (so in the source)), the “IL-6 secretion further enhanced, compared with ConA stimulation without PGE2” value is 3.5 fold and 5.7 fold and 10.1 fold.

Turning to `CC1CNc2c(cccc2S(=O)(=O)N[C@@H](CCCNC(=N)N)C(=O)N2CC[C@@H](C)C[C@@H]2C(=O)O)C1` (stereo partly drawn) [argatroban], in the series on fibrin formation, the “fibrin formation in the blood samples” value is listed as “inhibited”. Besides, the “amount of IL-6 production” value in the series on human whole blood (HWB) [4] was “did not affect”.

Consider `CCCC(=O)Nc1ncnc2c1ncn2[C@@H]1O[C@@H]2COP(=O)(O)O[C@H]2[C@H]1OC(=O)CCC` [dibutyryl-cAMP], for which the IL-6 production entry in series [3] is on record as “mimicked”.

As for Concanavalin A [ConA], the “secretion of IL-6” value in the series on human PBMC (PBMC, 5 μg/ml ConA, 24 hr, without PGE2) is given as “enhanced”.
